# Data taken from patent US11274079B2 (DALIAN INSTITUTE OF CHEMICAL PHYSICS, CHINESE ACADEMY OF …, priority 2018, dated 2022).
# Assays:
# M1 receptor = target: T1, M1 receptor (Homo sapiens, UniProt P11229); assay: DMR assay, antagonism of acetylcholine in CHO-K1 cells stably transfecting the M1 receptor; format: cell-based; conditions: for IC50: CHO-K1-M1 cells, DMR, acetylcholine 1 μM, 1 h pretreatment, time point 5 min; for antagonistic activity against the M1 receptor, in words: structure-activity comparison with parent compound
# T1 construct: expressed in transfected cells; host or cells: CHO-K1
# T1 sequence (P11229 1-460): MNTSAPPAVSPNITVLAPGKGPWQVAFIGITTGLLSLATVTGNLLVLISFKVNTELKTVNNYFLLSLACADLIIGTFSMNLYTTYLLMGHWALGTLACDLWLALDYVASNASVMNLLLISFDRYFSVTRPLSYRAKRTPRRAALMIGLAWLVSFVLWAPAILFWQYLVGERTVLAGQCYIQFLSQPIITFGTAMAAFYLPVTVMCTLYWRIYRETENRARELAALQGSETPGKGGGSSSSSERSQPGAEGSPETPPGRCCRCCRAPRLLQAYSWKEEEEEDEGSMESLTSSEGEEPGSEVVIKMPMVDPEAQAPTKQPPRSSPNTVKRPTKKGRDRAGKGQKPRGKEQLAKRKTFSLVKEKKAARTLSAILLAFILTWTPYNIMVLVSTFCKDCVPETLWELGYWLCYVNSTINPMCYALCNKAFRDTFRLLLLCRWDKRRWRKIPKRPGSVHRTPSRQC
# Experimental: (§1) The present invention relates to the antagonistic activity of the compound against the muscarinic receptor, which is primarily assessed by a cell-level dynamic mass redistribution (DMR) assay method. All tests are carried out on Epic platform, wherein the target model of the muscarinic receptor M1 is the CHO-K1 ceil model stably transfecting the M1 receptor, the target model of M3 is the HT-29 cell model endogenously highly expressing the M3 receptor, and the selected probe molecule is acetylcholine. Tire probe molecule acetylcholine is dissolved in water, while all other compounds are dissolved in DMSO.
# (§2) The inoculated cell plate is placed in a cell incubator for culture for 12 h until the cell growth and fusion degree reaches about 95%, and the activity assay is carried out. The culture medium is sucked from the cultured ceils, the buffer salt specified by the test is added with a volume of 30 μL per orifice and is stabilized for 1 h. After the baseline is stable, a 2-min baseline is established, and different concentrations of compounds to be tested are added to test the cultured cells for 1 h. After the cells are pretreated with the compounds to be tested for 1 h, the 2-min baseline is re-established, and acetylcholine having a concentration of 1 μM is added to test the cultured cells for 1 h.
# guinea pigs = assay: Acetylcholine chloride/histamine spray-induced asthma, incubation period; format: in vivo, guinea pig; conditions: for asthma incubation period: 0.2 mM in normal saline sprayed 10 min, challenge after 10 min, recorded as 240 s if no convulsion and fall; for efficacy in asthma model, in words: 0.2 mM spray
# Experimental: On the first day, guinea pigs are placed in a 38×38×38 cm (about 55 L) of home-made container with an atomizing nozzle having a diameter of about 3 cm above the side wall. Ultrasonic atomizer (YUWELL, model 402AI) is used to spray normal saline containing acetylcholine chloride (20 g/L) and histamine (1 g/L) for 15 s. The incubation period of asthma of guinea pigs (also is called asthma incubation period, which is the time from the end of the spray to asthma attack, extreme breathing difficulty until convulsion and fall) is recorded after the cessation of spraying. Animals with an incubation period of less than 120 s are qualified sensitive animals.
# 2. Experimental Processes
# On the second day, the qualified animals are selected for experiments, wherein one group (comprising 4 guinea pigs) is used as the control group, one group (comprising 4 guinea pigs) is experimented with positive medicine […] and one group (comprising 10 guinea pigs) is experimented with the drug to be tested. The animals are placed in a container, and sprayed with normal saline, tiotropium bromide and the compound to be tested. Both tiotropium bromide and the compound to be tested are soluble in normal saline at a concentration of 0.2 mM. After spraying for 10 min, the guinea pigs are taken out and put into another container of the same size. After 10 min, normal saline containing acetylcholine chloride (20 g/L) and histamine (1 g/L) is sprayed into the container for 15 s. The incubation periods of asthma of the guinea pigs are observed and recorded. If there is no convulsion and fall after 240 s, the incubation period is recorded as 240 s.
# M3 receptor = target: T2, M3 receptor (Homo sapiens, UniProt P20309); assay: DMR assay, antagonism of acetylcholine in HT-29 cells endogenously expressing the M3 receptor; format: cell-based; conditions: for IC50: HT-29 cells, DMR, acetylcholine 16 μM, 1 h pretreatment, time point 30 min; for antagonistic activity against the M3 receptor, in words: structure-activity comparison with parent compound
# T2 construct: HT-29 cell model endogenously highly expressing the M3 receptor; endogenous in cells; host or cells: HT-29
# Experimental: as §1
# as §2, with “20” for “12”, “cells,” for “ceils,”, “h.” for “h. After the cells are pretreated with the compounds to be tested for 1 h, the 2-min baseline is re-established, and acetylcholine having a concentration of 1 μM is added to test the cultured cells for 1 h.”
# [1] = tested on: isolated tracheal smooth muscle; assay: Carbachol-induced contraction of isolated tracheal strip; conditions: Cavia porcellus, read-out: IC50, diastolic effect on isolated tracheal smooth muscle
# Excerpt: 1. Experimental Materials
# 2. Preparation of Tracheal Strip
# The guinea pig is put to death by hammering it on the head, the chest cavity is quickly opened, and trachea is carefully isolated. […] The connective tissue and fat around the trachea are gently removed, and the trachea segment is quickly suspended and cut into tracheal strips with a blade (2-3 mm in width and 20 mm in length). […] The upper end of the tracheal strip is connected to a muscle tension transducer, and the load is adjusted to 1.5 g. The biological signal processing system is used to record the changes in muscular tension of tracheal smooth muscle. The perfusate is replaced once every 15 min, and the experiment is started after the tension is stabilized for 1 h. After each experiment, the smooth muscle is rinsed 3 to 5 times, and the next experiment is carried out after stabilization to the baseline.
# 3. Effects of Compounds Tested on Contraction of Isolated Tracheal Strip in Guinea Pig
# After incubation of isolated tracheal for 1 h, 10 μm/L of carbachol is added to induce the minimum concentration (the concentration obtained from the dose-effect curve of carbachol) of the maximum tracheal smooth muscle contraction, and the changes in tension of the tracheal strip within 5 min are recorded. When the tension of the tracheal smooth muscle reaches the highest point, the compounds tested with a concentration of 1 nm/L are added, and the changes in tension of the tracheal strip within 5 min are recorded. […] Then, the concentration difference is decreased, that is, the concentration is increased by three or four times to repeat the above administration, which makes the tension decrease continuously to the base value (initial load). The changes in tension of the tracheal stop within 5 min are recorded. The dose-effect relationship between the compounds tested and the contractile activity of the isolated tracheal smooth muscle in the guinea pig is obtained. The curve of the changes in tension of the tracheal smooth muscle in each group is recorded and the inhibition rate is calculated. After repeated experiments, IC50 value of each compound tested is calculated by taking points respectively.
# The dose-effect relationship between solvent (DMSO) control group and the contractile activity of the isolated tracheal smooth muscle in the guinea pig is recorded. Inhibition Rate=(Tension before Administration−Tension after Administration)/Tension before Administration
# T2 sequence (P20309 whole entry): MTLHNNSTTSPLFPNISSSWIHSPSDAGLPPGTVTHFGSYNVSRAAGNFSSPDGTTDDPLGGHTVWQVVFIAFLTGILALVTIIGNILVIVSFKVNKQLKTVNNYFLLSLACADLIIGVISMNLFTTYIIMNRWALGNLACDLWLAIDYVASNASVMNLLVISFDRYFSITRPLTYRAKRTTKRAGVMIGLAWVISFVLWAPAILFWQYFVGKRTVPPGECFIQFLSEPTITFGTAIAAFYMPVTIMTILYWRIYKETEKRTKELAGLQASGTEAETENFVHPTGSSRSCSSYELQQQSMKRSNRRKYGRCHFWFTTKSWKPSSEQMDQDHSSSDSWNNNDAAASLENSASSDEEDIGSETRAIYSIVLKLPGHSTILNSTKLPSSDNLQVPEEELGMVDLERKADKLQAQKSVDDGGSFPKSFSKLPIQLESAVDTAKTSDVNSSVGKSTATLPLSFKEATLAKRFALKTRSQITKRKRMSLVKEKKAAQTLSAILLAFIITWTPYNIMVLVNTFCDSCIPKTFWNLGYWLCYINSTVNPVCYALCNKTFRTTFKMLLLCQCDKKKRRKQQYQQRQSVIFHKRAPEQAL
SMILES,IC50 (M1 receptor),IC50 (M3 receptor),"antagonistic activity against the M1 receptor, in words (M1 receptor)","antagonistic activity against the M3 receptor, in words (M3 receptor)",asthma incubation period (guinea pigs),"efficacy in asthma model, in words (guinea pigs)",IC50 [1]
"C[N+]1(C)CCCCC1CC(c1ccccc1O)c1ccccc1O.[Br-] (stereo not shown) [I-3-1-Br, 2-[2,2-bis(2-hydroxy-phenyl)ethyl]-N,N-dimethylpiperidine Bromide]",18.5 ± 3.6 nM,6 ± 1.1 nM,–,–,240 s,good efficacy,–
"C[N+]1(C)CCCCC1CC(c1ccccc1)c1ccccc1O (stereo not shown) [I-2a-Br, 2-[2-(2-hydroxy-phenyl)-phenethyl]-N,N-dimethylpiperidine Bromide]",53.8 ± 4.6 nM,33.8 ± 3.6 nM,–,–,–,–,6.4 nM
"C[N+]1(C)CCCCC1CC(c1ccccc1)c1cc(F)ccc1O.[Br-] (stereo not shown) [I-10a-1, 2-[2-(2-hydroxy-5-fluorophenyl)-phenylethyl]-N,N-dimethylpiperidine bromide]",–,37 ± 4.3 nM,–,–,240 s,good efficacy,–
"C[N+]1(C)CCCCC1CC(c1ccccc1)c1ccccc1O.[Br-] (stereo not shown) [I-2a-1-Br, 2-[2-(2-hydroxy-phenyl)-phenethyl]-N,N-dimethylpiperidine Bromide]",8.8 ± 2.6 nM,5.7 ± 1.1 nM,–,–,228.9 ± 4.7 s,good efficacy,–
"C[N+]1(C)CCCCC1CC(c1ccccc1O)c1ccccc1O.[Br-] (stereo not shown) [I-3-2-Br, 2-[2,2-bis(2-hydroxy-phenyl)ethyl]-N,N-dimethylpiperidine Bromide]",43.7 ± 15.3 nM,11 ± 3.6 nM,–,–,233.1 ± 21.8 s,good efficacy,–
"Cc1ccc(OC(=O)C(C)C)c(C(CC2CCCC[N+]2(C)C)c2ccccc2)c1 (stereo not shown) [I-23, 2-[2-(2-isobutyryl estergroup-5-methyl-phenyl)-phenethyl]-N,N-dimethylpiperidine Bromide]",2530 ± 480 nM,790 ± 75 nM,–,–,–,–,–
"Cc1ccc(O)c(C(CC2CCC[N+]2(C)C)c2ccccc2)c1 (stereo not shown) [I-19, 2-[2-(2-hydroxy-5-methyl-phenyl)-phenethyl]-N,N-dimethylpyrrolidine Bromide]",41 ± 9.2 nM,29.9 ± 4.7 nM,–,–,–,–,–
"CCc1ccc(O)c(C(CC2CCC[N+]2(C)C)c2ccccc2)c1 (stereo not shown) [I-20, 2-[2-(2-hydroxy-5-ethyl-phenyl)-phenethyl]-N,N-dimethylpyrrolidine Bromide]",89 ± 7.3 nM,53.2 ± 9.3 nM,–,–,–,–,–
"Cc1ccc(O)c(C(CC2CCCC[N+]2(C)C)c2ccc(Cl)cc2)c1 (stereo not shown) [I-14, 2-[2-(4-chlorophenyl)-2-(2-hydroxy-5-methylphenyl)-ethyl]-N,N-dimethylpiperidine Bromide]",79.2 ± 36.9 nM,87.2 ± 36.5 nM,–,–,–,–,–
"C[N+]1(C)CCCCC1CC(c1ccccc1O)c1ccccc1O (stereo not shown) [I-3-I, 2-[2,2-bis(2-hydroxyphenyl)ethyl]-N,N-dimethylpiperidine Iodide]",63.5 ± 15.1 nM,6.9 ± 1.3 nM,–,–,–,–,–
COc1ccccc1C(CC1CCCCN1C)c1ccccc1 (stereo not shown) [II-17],6700 ± 810 nM,3420 ± 330 nM,–,–,–,–,–
"CN1CCCCC1CC(c1ccccc1)c1ccccc1 (stereo not shown) [II-1, 2-(2,2-Diphenylethyl)-N-Methylpiperidine]",3130 ± 240 nM,> 10000 nM,–,–,–,–,–
"Cc1ccc(O)c(C(CC2CCCC[N+]2(C)C)c2ccccc2)c1.[Br-] (stereo not shown) [I-4a-1-Br, 2-[2-(2-hydroxy-5-methyl-phenyl)-phenethyl]-N,N-dimethylpiperidine Bromide]",28.8 ± 11.3 nM,39.3 ± 10.9 nM,–,–,240 s,good efficacy,–
"C[N+]1(C)CCCCC1CC(c1ccccc1)c1cc(F)ccc1O (single isomer, unassigned) [I-10b, 2-[2-(2-hydroxy-5-fluorophenyl)-phenylethyl]-N,N-dimethylpiperidine bromide]",23.2 ± 12.1 nM,12.1 ± 5.3 nM,–,–,–,–,–
"C[N+]1(C)CCCCC1CC(c1ccccc1)c1ccccc1O (stereo not shown) [I-2a-I, 2-[2-(2-hydroxy-phenyl)-phenethyl]N,N-dimethylpiperidine Iodide]",16.5 ± 1.8 nM,25.6 ± 1.9 nM,–,–,–,–,–
"CN1CCCCC1CC(c1ccccc1O)c1ccccc1O (racemic) [II-3, 2-[2,2-bis(2-hydroxy-phenyl)-ethyl]-N-methylpiperidine]",43.4 ± 10.6 nM,13.1 ± 1.9 nM,–,–,–,–,–
"Cc1ccc(OC(=O)c2ccccc2)c(C(CC2CCCC[N+]2(C)C)c2ccccc2)c1 (stereo not shown) [I-25, 2-[2-(2-benzoate Group-5-methyl-phenyl)-phenethyl]-N,N-dimethylpiperidine Bromide]",997 ± 60 nM,2310 ± 600 nM,–,–,–,–,–
"Cc1ccc(C(CC2CCCC[N+]2(C)C)c2cc(C)ccc2O)cc1 (stereo not shown) [I-15, 2-[2-(4-tolyl)-2-(2-hydroxy-5-methyl-phenyl)-ethyl]-N,N-dimethylpiperidine Bromide]",48.3 ± 11 nM,78 ± 31 nM,–,–,–,–,–
CN1CCCCC1CC(c1ccccc1)c1cccs1 (stereo not shown) [II-21],3680 ± 810 nM,2420 ± 330 nM,–,–,–,–,–
"Cc1ccc(O)c(C(CC2CCCC[N+]2(C)C)c2ccsc2)c1 (stereo not shown) [I-22, 2-[2-(3-thienyl)-2-(2-hydroxy-5-methyl-phenyl)-ethyl]-N,N-dimethylpiperidine Bromide]",25.7 ± 0.8 nM,10.7 ± 1.6 nM,–,–,–,–,–

# Now from value to compound, other results behind:
IC50 (M1 receptor),IC50 (M3 receptor),"antagonistic activity against the M1 receptor, in words (M1 receptor)","antagonistic activity against the M3 receptor, in words (M3 receptor)",SMILES,asthma incubation period (guinea pigs),"efficacy in asthma model, in words (guinea pigs)",IC50 [1]
230 ± 10 nM,210 ± 30 nM,–,–,"Cc1ccc(O)c(C(CC2CCCCN2C)c2ccccc2F)c1 (stereo not shown) [II-7, 2-[2-(2-fluorophenyl)-2-(2-hydroxy-5-methyl-phenyl)ethyl]-N-methylpiperidine]",–,–,–
63 ± 7.5 nM,258 ± 30.4 nM,–,–,CCc1ccc(O)c(C(CC2CCCN2C)c2ccccc2)c1 (stereo not shown) [II-20],–,–,–
1600 ± 200 nM,2970 ± 700 nM,the activity is greatly decreased,the activity is greatly decreased,"Cc1ccc(OC(=O)c2ccccc2)c(C(CC2CCCCN2C)c2ccccc2)c1 (stereo not shown) [II-25, 2-[2-(2-benzoate Group-5-methyl-phenyl)-phenethyl]-N-methylpiperidine]",–,–,–
296 ± 62.9 nM,239 ± 33.2 nM,–,–,"CCN1CCCCC1CC(c1ccccc1)c1cc(C)ccc1O (stereo not shown) [II-18, 2-[2-(2-hydroxy-5-methyl-phenyl)-phenethyl]-N-ethylpiperidine]",–,–,–
83.2 ± 22.8 nM,109 ± 39.4 nM,–,–,"CN1CCCCC1CC(c1ccccc1)c1cc(F)ccc1O (single isomer, unassigned) [II-10b, 2-[2-(2-hydroxy-5-fluorophenyl)-phenethyl]-N-methylpiperidine]",–,–,–
–,2620 ± 425 nM,the activity is greatly decreased,the activity is greatly decreased,"Cc1ccc(S(=O)(=O)Oc2ccc(C)cc2C(CC2CCCCN2C)c2ccccc2)cc1 (stereo not shown) [II-26, 2-[2-(2-methylp-toluenesulfonategroup-5-methyl-phenyl)-phenethyl]-N-methylpiperidine]",–,–,–
53.2 ± 12.5 nM,49.3 nM,–,–,"CN1CCCCC1CC(c1ccccc1)c1cc(F)ccc1O (single isomer, unassigned) [II-10a, 2-[2-(2-hydroxy-5-fluorophenyl)-phenethyl]-N-methylpiperidine]",–,–,–
